# Read-outs that look alike come from different tables or passages of the source.
# What was measured:
# CXCL10 = experiment: Serum CXCL10 level in the Phase 2 study; format: in vivo, human; details: by week 2, all dose groups
# Source text: (§1) No differences were apparent for active vs. stable subjects.
# [1] = system: inflammatory chemotactic proteins (CXCL9 and 10) and T-cell activation markers (IL12B and TNFSF9); experiment: Serum type 1 inflammation biomarkers in the Phase 2 study; format: in vivo, human
# Source text: as §1
# facial vitiligo area = experiment: 3D digital imaging substudy of facial vitiligo area (Example 3); format: in vivo, human; parameters: F-VASI, Wk 24: scale not given here; details: for percent reduction of facial vitiligo area from Baseline by 3D imaging / Treatment effect size, Cohen's d of 3D Imaging / Treatment effect size, Cohen's d of F-VASI: Week 24
# Source text: Specifically, multiple stereoscopic images were captured by a proprietary optical 3D scanner for a subset of patients in the referenced study. The data acquisition procedure and determination of vitiligo area using the 3D platform were as follows: • 1. Subject was scanned, acquiring 2D raw color images with real time feedback to generate 3D gray low-resolution model • 2. Full resolution color model generated and uploaded to cloud • 3. Web application opened by investigator, who manually selected threshold for each region of face. • 4. The detected vitiligo area was measured and results reported
# To accomplish these objectives, twenty-seven subjects were enrolled into the 3D imaging substudy across 6 clinical sites. Twenty-one subjects had high quality 3D images available at Week 24 for analysis. Subjects who enrolled in the 3D digital imaging substudy were randomized as per the main protocol. The demographics, including Fitzpatrick skin types, and baseline disease characteristics in the 3D imaging substudy are provided in Table 9. With reference to Table 9, the demographics were in general consistent with the overall study population.
# The quality and completeness of each scan was assessed by a visual inspection of the resulting 3D image by the technician and/or investigator, utilizing Wood's lamp visualization to set a threshold at Baseline, defined as the intensity value used to distinguish which 3D pixels within the image belong to the vitiligo area or to the normal skin area. The threshold value determined by the investigator at Baseline remained constant and applied to all post-baseline 3D images during the treatment period to reflect changes in the pigmentation. Each 3D image included 10 predefined anatomic regions of the face: forehead, left eye, right eye, left lateral cheek/temple, left middle cheek, nose, right middle cheek, right lateral cheek/temple, upper lip, and chin. Results are presented as the sum of vitiligo area measurement (cm^2) across all anatomic regions of the face.
# [2] = Solubility of upadacitinib in different aqueous media at 37° C.; format: physicochemical
# [3] = system: non-segmental vitiligo (NSV); details: for Percent CFB in F-VASI; LSMEAN (SE): Week 24, MMRM; for F-VASI 75; (%): Week 24, NRI
# [4] = 22 mg QD, one representative subject, Baseline to Week 24
# [5] = Placebo (N = 3) vs 6 mg (N = 7)
# [6] = Placebo (N = 3) vs 11 mg (N = 6)
# [7] = Placebo (N = 3) vs 22 mg (N = 5)
# [8] = 6 mg QD, Week 24, change from baseline, 44 patients
# [9] = 11 mg QD, Week 24, change from baseline, 45 patients
# [10] = 22 mg QD, Week 24, change from baseline, 34 patients
compound,measurement,setting,value
"CC[C@@H]1CN(C(=O)NCC(F)(F)F)C[C@@H]1c1cnc2cnc3[nH]ccc3n12 [Upadacitinib, (3S,4R)-3-ethyl-4-(3H-imidazo[1,2-a]pyrrolo[2,3-e]pyrazin-8-yl)-N-(2,2,2-trifluoroethyl) pyrrolidine-1-carboxamide]",CXCL10 levels,CXCL10,reduced to those in healthy volunteers
same,Inhibition of type 1 inflammation biomarkers,[1]; 11 mg dose,maximal inhibition was achieved
same,"Change from baseline in CXCL9, CXCL10, IL12B and TNFSF9","[1]; all upadacitinib doses, from week 2 through week 24, data not shown",Reductions from baseline were observed
same,"% Change Facial Vitiligo Area by 3D Imaging at Week 24, Mean","facial vitiligo area; 6 mg QD, N 7",−15.20%
same,"% Change Facial Vitiligo Area by 3D Imaging at Week 24, Median","facial vitiligo area; 6 mg QD, N 7",−9.85%
same,percent reduction of facial vitiligo area from Baseline by 3D imaging,facial vitiligo area; 6 mg QD,15.2%
same,"% Change Facial Vitiligo Area by 3D Imaging at Week 24, Mean","facial vitiligo area; 11 mg QD, N 6",−34.96%
same,"% Change Facial Vitiligo Area by 3D Imaging at Week 24, Median","facial vitiligo area; 11 mg QD, N 6",−37.38%
same,percent reduction of facial vitiligo area from Baseline by 3D imaging,facial vitiligo area; 11 mg QD,34.96%
same,"% Change Facial Vitiligo Area by 3D Imaging at Week 24, Mean","facial vitiligo area; 22 mg QD, N 5",−23.00%
same,"% Change Facial Vitiligo Area by 3D Imaging at Week 24, Median","facial vitiligo area; 22 mg QD, N 5",−27.2%
same,percent reduction of facial vitiligo area from Baseline by 3D imaging,facial vitiligo area; 22 mg QD,23%
same,"Cherry 3D imaging vitiligo area, % change",facial vitiligo area; [4],−27.2%
same,"F-VASI, % change",facial vitiligo area; [4],−24.62%
same,"Cherry 3D imaging vitiligo area, % change","facial vitiligo area; 22 mg QD, one representative subject, Baseline to Week 24, listed as upadacitinib",−27.20%
same,"Cherry 3D imaging vitiligo area, Wk 24","facial vitiligo area; 22 mg QD, one representative subject, Fitzpatrick Type III, baseline 215.84",157.13 cm^2
same,"F-VASI, Wk 24","facial vitiligo area; 22 mg QD, one representative subject, baseline 1.3",0.98
same,percent change from baseline in vitiligo extent score (VES) by 3D imaging evaluation,"facial vitiligo area; 11 and 22 mg versus placebo, preliminary",greater percent change from baseline
same,"Treatment effect size, Cohen's d of 3D Imaging",facial vitiligo area; [5],0.50
same,"Treatment effect size, Cohen's d of F-VASI",facial vitiligo area; [5],0.76
same,"Treatment effect size, Cohen's d of 3D Imaging",facial vitiligo area; [6],> 0.8
same,"Treatment effect size, Cohen's d of F-VASI",facial vitiligo area; [6],0.13
same,"Treatment effect size, Cohen's d of 3D Imaging","facial vitiligo area; Placebo (N = 3) vs 11 mg (N = 6), listed as UPA",1.36
same,"Treatment effect size, Cohen's d of 3D Imaging",facial vitiligo area; [7],> 0.8
same,"Treatment effect size, Cohen's d of F-VASI",facial vitiligo area; [7],0.61
same,"Treatment effect size, Cohen's d of 3D Imaging","facial vitiligo area; Placebo (N = 3) vs 22 mg (N = 5), listed as UPA",1.02
same,solubility,"[2]; 50 mM carbonate buffer, 37 °C, pH 9.11, aqueous buffer, thermodynamic from solid",199 ± 6 µg/mL
same,Solubility (in words),[2]; at low pH,good solubility
same,VitiQoL LS mean change,[3]; 6 mg,−7.5%
same,Percent CFB in F-VASI; LSMEAN (SE),[3]; 6 mg QD oral,−21.96 (5.162) Percent
same,CFB in VitiQoL Total Score; LSMEAN (SE),"[3]; 6 mg QD, Week 24",−7.5 (2.27)
same,Percent CFB in T-VASI; LSMEAN (SE),"[3]; 6 mg QD, Week 24",−13.87 (3.332) Percent
same,T-VASI 50; (%),"[3]; 6 mg QD, Week 24",6.1%
same,"Δ vs PBO, CFB in VitiQoL Total Score","[3]; 6 mg QD, Week 24",Δ = −1.9;
same,"Δ vs PBO, F-VASI 50","[3]; 6 mg QD, Week 24",Δ = 6.6;
same,"Δ vs PBO, F-VASI 75","[3]; 6 mg QD, Week 24",Δ = 6.9;
same,"Δ vs PBO, Percent CFB in F-VASI","[3]; 6 mg QD, Week 24",Δ = −7.60;
same,"Δ vs PBO, Percent CFB in T-VASI","[3]; 6 mg QD, Week 24",Δ = −7.45;
same,"Δ vs PBO, T-VASI 50","[3]; 6 mg QD, Week 24",Δ = 3.7;
same,"Δ vs PBO, much better or a little better on PaGIC","[3]; 6 mg QD, Week 24",Δ = 14.3%
same,"Δ vs PBO, much better or a little better on PhGIC","[3]; 6 mg QD, Week 24",Δ = 18%
same,"Achieving much better or a little better on PaGIC (PaGIC-V score of 1 or 2), responders n","[3]; 6 mg QD, Week 24, N = 49",17 n
same,F-VASI 50; n,"[3]; 6 mg QD, Week 24, N = 49",8 n
same,T-VASI 50; n,"[3]; 6 mg QD, Week 24, N = 49",3 n
same,"VNS score of 4 or 5, Responders n","[3]; 6 mg QD, Week 24, N = 49",0 n
same,F-VASI 75; n,"[3]; 6 mg QD, Week 24, N = 49, NRI",4 n
same,F-VASI 75; (%),[3]; 6 mg QD,8.2%
same,DLQI LS mean change,"[3]; 6 mg QD, Week 24, change from baseline, 43 patients",−1.4%
same,HADS Anxiety LS mean change,[3]; [8],−0.7%
same,HADS Depression LS mean change,[3]; [8],0.2%
same,Percent CFB in F-VASI,"[3]; 6 mg, Week 52, As Observed, N = 38",−52.7%
same,Percent CFB in F-VASI,"[3]; 6 mg, Week 52, Intent-to-Treat, MMRM/NRI-MI, N = 49",−52.3%
same,Percent CFB in F-VASI; LSMEAN (SE),[3]; 11 mg QD oral,−35.63 (5.297) Percent
same,CFB in VitiQoL Total Score; LSMEAN (SE),"[3]; 11 mg QD, Week 24",−3.7 (2.30)
same,Percent CFB in T-VASI; LSMEAN (SE),"[3]; 11 mg QD, Week 24",−17.26 (3.414) Percent
same,T-VASI 50; (%),"[3]; 11 mg QD, Week 24",6.4%
same,"Δ vs PBO, CFB in VitiQoL Total Score","[3]; 11 mg QD, Week 24",Δ = 1.9;
same,"Δ vs PBO, F-VASI 50","[3]; 11 mg QD, Week 24",Δ = 29.3;
same,"Δ vs PBO, F-VASI 75","[3]; 11 mg QD, Week 24",Δ = 17.8;
same,"Δ vs PBO, Percent CFB in F-VASI","[3]; 11 mg QD, Week 24",Δ = −21.27;
same,"Δ vs PBO, Percent CFB in T-VASI","[3]; 11 mg QD, Week 24",Δ = −10.84;
same,"Δ vs PBO, T-VASI 50","[3]; 11 mg QD, Week 24",Δ = 3.8;
same,"Δ vs PBO, much better or a little better on PaGIC","[3]; 11 mg QD, Week 24",Δ = 38.5%
same,"Δ vs PBO, much better or a little better on PhGIC","[3]; 11 mg QD, Week 24",Δ = 37.8%
same,"Achieving much better or a little better on PaGIC (PaGIC-V score of 1 or 2), responders n","[3]; 11 mg QD, Week 24, N = 47",26 n
same,F-VASI 50; n,"[3]; 11 mg QD, Week 24, N = 47",18 n
same,T-VASI 50; n,"[3]; 11 mg QD, Week 24, N = 47",3 n
same,"VNS score of 4 or 5, Responders n","[3]; 11 mg QD, Week 24, N = 47",0 n
same,F-VASI 75; n,"[3]; 11 mg QD, Week 24, N = 47, NRI",9 n
same,F-VASI 75; (%),[3]; 11 mg QD,19.1%
same,DLQI LS mean change,"[3]; 11 mg QD, Week 24, change from baseline, 42 patients",−1.2%
same,VitiQoL LS mean change,"[3]; 11 mg QD, Week 24, change from baseline, 44 patients",−3.7%
same,HADS Anxiety LS mean change,[3]; [9],0.0%
same,HADS Depression LS mean change,[3]; [9],−0.3%
same,Percent CFB in F-VASI,"[3]; 11 mg, Week 52, As Observed, N = 38",−64.8%
same,Percent CFB in F-VASI,"[3]; 11 mg, Week 52, Intent-to-Treat, MMRM/NRI-MI, N = 47",−62.8%
same,Percent CFB in F-VASI; LSMEAN (SE),[3]; 22 mg QD oral,−33.96 (5.793) Percent
same,Percent CFB in T-VASI; LSMEAN (SE),"[3]; 22 mg QD, Week 24",−20.69 (3.731) Percent
same,T-VASI 50; (%),"[3]; 22 mg QD, Week 24",11.6%
same,"VNS score of 4 or 5, Responders (%)","[3]; 22 mg QD, Week 24",(11.6) %
same,"Δ vs PBO, CFB in VitiQoL Total Score","[3]; 22 mg QD, Week 24",Δ = −1.1;
same,"Δ vs PBO, F-VASI 50","[3]; 22 mg QD, Week 24",Δ = 28.7;
same,"Δ vs PBO, F-VASI 75","[3]; 22 mg QD, Week 24",Δ = 11.7;
same,"Δ vs PBO, Percent CFB in F-VASI","[3]; 22 mg QD, Week 24",Δ = −19.60;
same,"Δ vs PBO, Percent CFB in T-VASI","[3]; 22 mg QD, Week 24",Δ = −14.27;
same,"Δ vs PBO, T-VASI 50","[3]; 22 mg QD, Week 24",Δ = 9.1;
same,"Δ vs PBO, much better or a little better on PaGIC","[3]; 22 mg QD, Week 24",Δ = 41.1%
same,"Δ vs PBO, much better or a little better on PhGIC","[3]; 22 mg QD, Week 24",Δ = 32%
same,"Achieving much better or a little better on PaGIC (PaGIC-V score of 1 or 2), responders n","[3]; 22 mg QD, Week 24, N = 43",26 n
same,F-VASI 50; n,"[3]; 22 mg QD, Week 24, N = 43",17 n
same,T-VASI 50; n,"[3]; 22 mg QD, Week 24, N = 43",5 n
same,"VNS score of 4 or 5, Responders n","[3]; 22 mg QD, Week 24, N = 43",5 n
same,F-VASI 75; n,"[3]; 22 mg QD, Week 24, N = 43, NRI",6 n
same,F-VASI 75; (%),[3]; 22 mg QD,14.0%
same,HADS Anxiety LS mean change,[3]; [10],−0.3%
same,HADS Depression LS mean change,[3]; [10],−0.1%
same,VitiQoL LS mean change,[3]; [10],−6.6%
same,DLQI LS mean change,"[3]; 22 mg QD, Week 24, change from baseline, 35 patients",−2.2%
same,Percent CFB in F-VASI,"[3]; 22 mg, Week 52, As Observed, N = 29",−60.8%
same,Percent CFB in F-VASI,"[3]; 22 mg, Week 52, Intent-to-Treat, MMRM/NRI-MI, N = 43",−59.2%
